According to PMC11019550, “Potent Inhibition of E. coli DXP Synthase by a gem-Diaryl Bisubstrate Analog” (ACS Infectious Diseases, 2024):

Experiments:
R99A EcDXPS [1] = target: T1, R99A EcDXPS (Escherichia coli, UniProt P77488, R99A); test: IC50 determination for 8 on R99A EcDXPS variant; type: biochemical; details: 400 nM DXPS, 2 × Km pyruvate, 10 × Km D-GAP
T1 construct: made in house
Protocol: (§1) EcDXPS and IspC were preincubated with inhibitor for 10 min at 25 °C in assay reaction buffer (100 mM HEPES pH 8, 2 mM MgCl2, 5 mM NaCl, 1 mM ThDP, and 200 μM NADPH). Enzyme concentrations for variants were as follows: 200 nM DXPS (wildtype EcDXPS) and 4 μM IspC; 400 nM DXPS (R99A and R478A EcDXPS) and 6 μM IspC. The reaction was initiated by the addition of substrates at final concentrations of 2 × Km pyruvate and 10 × KmD-GAP. NADPH consumption was monitored at 340 nm for 10 min at 25 °C. The initial rate of NADPH consumption was used to determine the initial rate of DXP formation catalyzed by DXPS. Experiments were performed in triplicate and error bars represented standard error.

EcDXPS = target: T2, EcDXPS (Escherichia coli, UniProt P77488); test: DXPS quaternary structure by native PAGE and analytical gel filtration
T2 construct: made in house
Protocol: EcDXPS (20 μM) in buffer (2 mM MgCl2, 5 mM NaCl, 1 mM ThDP, 100 mM HEPES pH 8) was preincubated with 8 ([…]) or no inhibitor for 30 min at 25 °C. Samples were then diluted 2-fold with 2× loading dye (100 mM Tris HCl pH 8, 20% glycerol, 200 mM dithiothreitol (DTT), 0.01% bromophenol blue). Samples (15 μL) were then loaded on a 7.5% PAGE gel. Gel electrophoresis was conducted at 4 °C for 30 min at 120 V, followed by 3 h at 150 V. Protein bands were stained with Protostain Blue. Experiments were performed in triplicate.
Analytical gel filtration was performed on an AKTA-GO FPLC system held at 4 °C fitted with a Cytiva Superdex 200 Increase 5/150 GL column. A 200 μL solution containing 29 μM EcDXPS in 25 mM HEPES, pH 8, 100 mM NaCl, 1 mM MgCl2, 1% glycerol, 10 μM ThDP, and 29 μM 8 or no inhibitor was centrifuged at 13,000 rpm for 10 min to remove particulates. The resulting supernatant was loaded into a 10 μL loop attached to the FPLC via gastight syringes. […] DXPS was analyzed by isocratic elution from the column at a flow of 0.15 mL/min with 1.5 column volumes (4.5 mL). The dimer/tetramer ratio was calculated from the peak area (mL mAu) of the dimer (1.7 mL retention) peak divided by the peak area (mL mAu) of the tetramer (1.4 mL retention) peak. […]

R99A EcDXPS [2] = target: T1, R99A EcDXPS; test: Circular dichroism titration (PLThDP formation, apparent KD) on R99A EcDXPS; type: binding
Protocol: CD titrations of 8 and 10 onto WT, R99A, and R478A EcDXPS variants were conducted at 25 °C under aerobic conditions in 1.5 mL solutions containing 30 μM EcDXPS in 50 mM HEPES pH 8, 100 mM NaCl, 1 mM MgCl2, and 0.2 mM ThDP. Scans were obtained from 280 to 400 nm with a 0.5 s averaging time and 1 nm step following a titration of inhibitor (8: 0.25–30 μM on WT, 0.5–30 μM on R99A and R478A; 10 2.5–30 μM on WT, R99A, and R478A), with a 5 min preincubation of inhibitor with DXPS prior to scanning. […] The CD signals at 294 nm determined from the difference spectra obtained by subtracting the signal of E-ThDP at 294 nm were plotted as a function of [inhibitor] and fit to (1) the quadratic equation described in eq 2 (8 on WT DXPS), where E is the concentration of DXPS taking into account stoichiometric binding and CDmax is the maximal CD signal, or (2) a one-site specific binding curve (all other experiments) using GraphPad Prism Version 9 to calculate an apparent KD. Experiments were conducted in triplicate and the standard error was calculated. [drawing 2] 2
At the conclusion of the titration described above, the CD signal at 313 nm (previously characterized for LThDP) was recorded. Pyruvate (1 mM) was then added to the mixture, and a CD scan of the resulting solution was conducted as described above, to detect shifts in the CD spectrum that may correlate to LThDP formation. Experiments were conducted in triplicate.

wildtype EcDXPS = target: T3, wildtype EcDXPS (Escherichia coli, UniProt P77488); test: IC50 determination for 8 on wildtype EcDXPS (DXPS-IspC coupled assay); type: biochemical
T3 construct: made in house
Protocol: as §1

For `CC(=O)P(=O)(O)OCCc1cn(C(Cc2ccccc2)(Cc2ccccc2)C(=O)O)nn1` [Compound 8], the IC50 (R99A EcDXPS [1]) was 3.007 ± 0.015 µM, the “effect on dimer/tetramer ratio (analytical gel filtration)” value (EcDXPS; 29 μM EcDXPS, 29 μM 8) was “small but statistically significant decrease in the dimer/tetramer ratio” and the “effect on EcDXPS oligomeric state (native PAGE)” value (EcDXPS; EcDXPS 20 μM, incubation with 8) was “induce the formation of higher-order enzyme oligomers”. For the same compound, the Kd (R99A EcDXPS [2]) was 19 ± 3 µM, the “change in PLThDP CD signal upon addition of pyruvate” value (R99A EcDXPS [2]; R99A-PLThDP complex) was “shift in the CD profile toward the characteristic LThDP signal” and the IC50 (wildtype EcDXPS) was ≤ 0.072 µM. For the same compound, the “concentration required for 21% inhibition of DXPS” value (wildtype EcDXPS; 2 × Km pyruvate) was “less than 15.6 nM”.
